The record followed here is patent US10981894B2, “Melanocortin subtype-2 receptor (MC2R) antagonists and uses thereof” (Crinetics Pharmaceuticals, Inc., priority 2018, dated 2021).

Some results are limits rather than exact numbers.

hMC2 receptor, sequence (Q01718 whole entry): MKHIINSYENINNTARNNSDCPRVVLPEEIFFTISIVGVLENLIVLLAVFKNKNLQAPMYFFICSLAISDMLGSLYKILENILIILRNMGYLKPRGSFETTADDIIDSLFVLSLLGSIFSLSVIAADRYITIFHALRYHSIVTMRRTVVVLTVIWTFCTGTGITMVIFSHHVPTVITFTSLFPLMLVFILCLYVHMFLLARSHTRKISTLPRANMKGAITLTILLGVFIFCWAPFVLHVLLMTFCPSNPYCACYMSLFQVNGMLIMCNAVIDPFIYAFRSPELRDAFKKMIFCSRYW
hMC2 receptor, sequence (Q8TCY5 whole entry partner): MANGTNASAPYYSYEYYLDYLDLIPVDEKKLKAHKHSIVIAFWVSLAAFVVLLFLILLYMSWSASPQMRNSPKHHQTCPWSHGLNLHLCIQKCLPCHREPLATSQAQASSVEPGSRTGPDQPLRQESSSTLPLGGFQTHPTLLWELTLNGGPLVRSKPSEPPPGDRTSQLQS

The experiment concerns the target hMC2 receptor (Homo sapiens, UniProt Q01718). The experiment can be described thus: hMC2 membrane binding assay ([125I]ACTH (1-39) Tyr23, SPA). Further details: scale not given here. To be noted: crude hMC2R membranes from CRE-bla-CHO-K1 cells expressing hMC2 receptor and hMRAP; [125I]ACTH (1-39) Tyr23 0.2 nM; 1.5 hours at room temperature; read-out: MC2R binding potency. An outline of the steps:
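CRE-bla-CHO-K1 membranes co-expressing hMC2 receptor and hMRAP, preincubated with WGA PVT SPA beads in pH 7.4 HEPES/MgCl2/CaCl2/0.2% BSA buffer. Compounds (typically 0–10,000 nM final) compete with 0.2 nM [125I]ACTH(1-39) Tyr23 for 1.5 h at room temperature. SPA counts give Ki by non-linear regression.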
Take `CCOc1ccccc1-c1ccc(N2CCN(C(=O)N3CCCC[C@H]3C(F)(F)F)C[C@H]2CC)c(C(=O)N[C@H]2CCN(C)C2)n1` [Compound 1-435, 6-(2-ethoxyphenyl)-3-[(2R)-2-ethyl-4-[(2S)-2-(trifluoromethyl)piperidine-1-carbonyl]piperazin-1-yl]-N-[(3S)-1-methylpyrrolidin-3-yl]pyridine-2-carboxamide]: the Ki was less than 10 nM.

With `CCOc1ncccc1-c1ccc(N2CCN(C(=O)N3CCc4cc(F)cc(C#N)c43)C[C@H]2CC)c(C(=O)NC2CN(C)C2)n1` [Compound 1-422, 5-[(2R)-4-(7-cyano-5-fluoro-2,3-dihydro-1H-indole-1-carbonyl)-2-ethylpiperazin-1-yl]-2′-ethoxy-N-(1-methylazetidin-3-yl)-[2,3′-bipyridine]-6-carboxamide], the Ki is less than 10 nM.

Consider `CCOc1ccccc1-c1ccc(N2CCN(C(=O)c3ccc(OC)nc3C(F)(F)F)C[C@H]2CC)c(C(=O)N[C@@H]2CCNC2)n1` [Compound 1-254, 6-(2-ethoxyphenyl)-3-[(2R)-2-ethyl-4-[6-methoxy-2-(trifluoromethyl)pyridine-3-carbonyl]piperazin-1-yl]-N-[(3R)-pyrrolidin-3-yl]pyridine-2-carboxamide], for which the Ki is less than 10 nM.

As to `CCOc1ncccc1-c1ccc(N2CCN(C(=O)c3ccc(Cl)cc3C#N)C[C@H]2CC)c(C(=O)NCCNC)n1` [Compound 1-171, 5-[(2R)-4-(4-chloro-2-cyanobenzoyl)-2-ethylpiperazin-1-yl]-2′-ethoxy-N-[2-(methylamino)ethyl]-[2,3′-bipyridine]-6-carboxamide], the Ki is less than 10 nM.

With `CCOc1ncccc1-c1ccc(N2CCN(C(=O)c3ccc(Cl)cc3C(F)(F)F)C[C@H]2CC)c(C(=O)NCCN(C)C)c1` [Compound 1-47, 2-[(2R)-4-[4-chloro-2-(trifluoromethyl)benzoyl]-2-ethylpiperazin-1-yl]-N-[2-(dimethylamino)ethyl]-5-(2-ethoxypyridin-3-yl)benzamide], the Ki was less than 10 nM.

Consider `CCOc1ncccc1-c1ccc(N2CCN(C(=O)c3ccc(OC)nc3C(F)(F)F)C[C@H]2CC)c(C(=O)N[C@H]2CNC[C@H]2F)n1` [Compound 1-291, 2′-ethoxy-5-[(2R)-2-ethyl-4-[6-methoxy-2-(trifluoromethyl)pyridine-3-carbonyl]piperazin-1-yl]-N-[(3S,4R)-4-fluoropyrrolidin-3-yl]-[2,3′-bipyridine]-6-carboxamide], for which the Ki was less than 10 nM.

Take `CCOc1ncccc1-c1ccc(N2CCN(C(=O)c3ccc(Cl)cc3OC)C[C@H]2CC)c(C(=O)NCCN)c1` [Compound 1-54, N-(2-aminoethyl)-2-[(2R)-4-(4-chloro-2-methoxybenzoyl)-2-ethylpiperazin-1-yl]-5-(2-ethoxypyridin-3-yl)benzamide]: the Ki is less than 10 nM.

`CCOc1ncccc1-c1ccc(N2CCN(C(=O)C3(C(F)(F)F)CC4CCC3C4)C[C@H]2CC)c(C(=O)NCC2CN(C)C2)n1` (stereo partly drawn) [Compound 1-339, 2′-ethoxy-5-[(2R)-2-ethyl-4-[2-(trifluoromethyl)bicyclo[2.2.1]heptane-2-carbonyl]piperazin-1-yl]-N-[(1-methylazetidin-3-yl)methyl]-[2,3′-bipyridine]-6-carboxamide]: the Ki is less than 10 nM.

`CCOc1ncccc1-c1ccc(N2CCN(C(=O)c3ccc(Cl)cc3C(F)(F)F)C[C@H]2CC)c(CN)n1` [Compound 2-13, 1-{5-[(2R)-4-[4-chloro-2-(trifluoromethyl)benzoyl]-2-ethylpiperazin-1-yl]-2′-ethoxy-[2,3′-bipyridin]-6-yl}methanamine]: the Ki is less than 10 nM.

Consider `CCOc1ncccc1-c1ccc(N2CCN(C(=O)N3CCC[C@H]3C(F)(F)F)C[C@H]2CC)c(C(=O)NC[C@H]2CCN2C)n1` [Compound 1-386, 2′-ethoxy-5-[(2R)-2-ethyl-4-[(2S)-2-(trifluoromethyl)pyrrolidine-1-carbonyl]piperazin-1-yl]-N-{[(2R)-1-methylazetidin-2-yl]methyl}-[2,3′-bipyridine]-6-carboxamide], for which the Ki was 10 to 100 nM.
